Laboratory results: paper PMC6153936, “Bisarylureas Based on 1H-Pyrazolo[3,4-d]pyrimidine Scaffold as Novel Pan-RAF Inhibitors with Potent Anti-Proliferative Activities: Structure-Based Design, Synthesis, Biological Evaluation and Molecular Modelling Studies” (Molecules : A Journal of Synthetic Chemistry and Natural …, 2017)
pIC50: −log10 of the molar value.

Key:
BRAF^V600E = biological target: T1, BRAF^V600E (Homo sapiens, UniProt P15056, V600E); assay: BRAF^V600E kinase inhibition, Z'-LYTE; format: biochemical; conditions: for inhibition at 0.1 µM: 100 nM; for inhibition at 0.1 µM / inhibition at 1 µM: average of two independent experiments; for inhibition at 1 µM: 1000 nM; for pIC50: ten concentrations 1000 to 0.0508 nM, two independent experiments
T1 construct: purchased Life Technologies
T1 sequence (P15056 whole entry V600E): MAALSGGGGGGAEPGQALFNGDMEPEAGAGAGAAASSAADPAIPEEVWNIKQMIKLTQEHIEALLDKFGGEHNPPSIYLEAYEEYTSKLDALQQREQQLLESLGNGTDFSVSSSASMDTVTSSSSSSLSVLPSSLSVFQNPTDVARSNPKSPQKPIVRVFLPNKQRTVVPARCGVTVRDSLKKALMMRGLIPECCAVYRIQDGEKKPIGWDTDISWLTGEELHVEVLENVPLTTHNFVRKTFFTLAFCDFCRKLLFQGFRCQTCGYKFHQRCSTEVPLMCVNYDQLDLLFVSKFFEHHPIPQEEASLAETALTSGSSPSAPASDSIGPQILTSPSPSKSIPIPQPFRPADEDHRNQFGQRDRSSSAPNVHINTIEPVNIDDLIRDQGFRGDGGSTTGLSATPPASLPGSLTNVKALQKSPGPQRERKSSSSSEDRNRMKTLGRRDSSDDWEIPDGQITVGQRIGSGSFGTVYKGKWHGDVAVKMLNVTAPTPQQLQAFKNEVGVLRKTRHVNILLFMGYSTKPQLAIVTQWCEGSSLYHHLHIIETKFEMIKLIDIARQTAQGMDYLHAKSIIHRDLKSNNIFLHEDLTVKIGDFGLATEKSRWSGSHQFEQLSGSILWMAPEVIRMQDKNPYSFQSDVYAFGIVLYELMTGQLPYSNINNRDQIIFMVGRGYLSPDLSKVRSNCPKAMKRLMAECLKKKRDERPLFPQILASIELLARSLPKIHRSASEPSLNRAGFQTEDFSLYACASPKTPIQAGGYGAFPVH
Method: The experiments were performed according to the instructions of the manufacturer, and single point concentration testing with two independent data points (n = 2). […] The IC50 values were calculated from the inhibition curves from two separate experiments.

PC-3 = assay: MTT anti-proliferative assay, PC-3; format: cell-based, human; conditions: for pIC50: Homo sapiens, PC-3, MTT, 48 h; for fold improvement in activity compared to Sorafenib, PC-3: PC-3, IC50 ratio to Sorafenib
Method: (§1) All cell lines were purchased from Cell Bank of China Science Academy (Shanghai, China). All chemicals and solvents were purchased from Sigma-Aldrich (St. Louis, MO, USA) or Gibco (Gibco BRL, Grand Island, NY, USA). The PC-3 and A375 cell lines was maintained in Dulbecco's modified eagle (DEME) medium supplement with 10% fetal bovine serum (FBS) and 1% penicillin–streptomycin. The others were cultured in Roswell Park Memorial Institute (RPMI) 1640 medium supplement with 10% fetal bovine serum (FBS) and 1% penicillin–streptomycin. Approximately 5 × 10^3 cells, suspended in medium, were plated into each well of a 96-well plate and grown at 37 °C in a humidified atmosphere with 5% CO2 for 24 h. The following day, various concentrations of tested compounds were added to the culture medium and incubated for 48 h. Fresh MTT was added to each well at the terminal concentration of 5 mg/mL in phosphate buffered saline (PBS), and incubated with cells at 37 °C for 4 h. The formazan crystals in each well were dissolved in 150 μL DMSO, and the absorbency at 570 nm was measured with an enzyme-linked immunosorbent assay plate reader. All of the compounds were tested three times in each of the cell lines.

A549 = assay: MTT anti-proliferative assay, A549; format: cell-based, human; conditions: for pIC50: Homo sapiens, A549, MTT, 48 h
Method: as §1

HT-29 = assay: MTT anti-proliferative assay, HT-29; format: cell-based; conditions: Homo sapiens, 48 h
Method: as §1

[1] = MTT cytotoxic assay, normal cell line MDCK; conditions: dog, MDCK cells (normal cell line)
Method: as §1

A375 = assay: MTT anti-proliferative assay, A375; format: cell-based; conditions: Homo sapiens, A-375, 48 h
Method: as §1

Row | Structure (SMILES) | inhibition at 0.1 µM (BRAF^V600E) | inhibition at 1 µM (BRAF^V600E) | pIC50 (PC-3) | pIC50 (A549) | pIC50 (HT-29) | pIC50 (A375) | melting point | pIC50 (BRAF^V600E) | IC50 at 48 h [1] | fold improvement in activity compared to Sorafenib, PC-3 (PC-3) | fold improvement compared to Sorafenib, A549 (A549; A549, IC50 ratio to Sorafenib)
1 | Cc1ccc(NC(=O)Nc2ccc(Oc3ncnc4[nH]ncc34)cc2)cc1C [Compound 1t, 1-(4-((1H-Pyrazolo[3,4-d]pyrimidin-4-yl)oxy)phenyl)-3-(3,4-dimethylphenyl)urea] | 28% | 89% | < 4.10 | < 4.10 | < 4.10 | 4.12 | 249.9 to 250.6 °C |  | > 80 µM |  | 
2 | CCc1cccc(NC(=O)Nc2ccc(Oc3ncnc4[nH]ncc34)cc2)c1 [Compound 1l, 1-(4-((1H-Pyrazolo[3,4-d]pyrimidin-4-yl)oxy)phenyl)-3-(3-ethylphenyl)urea] | 60% | 69% | < 4.10 | 4.70 | 4.15 | 4.12 | 219.5 to 221.5 °C | 7.29 | > 80 µM |  | 
3 | Cc1ccc([N+](=O)[O-])c(NC(=O)Nc2ccc(Oc3ncnc4[nH]ncc34)cc2)c1 [Compound 1r, 1-(4-((1H-Pyrazolo[3,4-d]pyrimidin-4-yl)oxy)phenyl)-3-(5-methyl-2-nitrophenyl)urea] |  | 22% | < 4.10 | < 4.10 | < 4.10 | < 4.10 | 359.7 to 360.2 °C |  | > 80 µM |  | 
4 | Cn1ncc2c(Oc3ccc(NC(=O)Nc4cccc(Cl)c4)cc3)ncnc21 [Compound 1u, 1-(3-Chlorophenyl)-3-(4-((1-methyl-1H-pyrazolo[3,4-d]pyrimidin-4-yl)oxy)phenyl)urea] | 61% | 93% | 4.16 | < 4.10 | < 4.10 | 4.88 | 309.8 to 312 °C | 7.42 | > 80 µM |  | 
5 | Cc1ccc(Cl)c(NC(=O)Nc2ccc(Oc3ncnc4[nH]ncc34)cc2)c1 [Compound 1f, 1-(4-((1H-Pyrazolo[3,4-d]pyrimidin-4-yl)oxy)phenyl)-3-(2-chloro-5-methylphenyl)urea] |  | 37% | 5.95 | 5.28 | 4.21 | 4.21 | 230.2 to 232.4 °C |  | > 80 µM | 12 fold | 2 fold
6 | Cc1cccc(NC(=O)Nc2ccc(Oc3ncnc4[nH]ncc34)cc2)c1 [Compound 1b, 1-(4-((1H-Pyrazolo[3,4-d]pyrimidin-4-yl)oxy)phenyl)-3-(m-tolyl)urea] |  | 46% | < 4.10 | 4.12 | < 4.10 | < 4.10 | 227.4 to 230 °C |  | > 80 µM |  | 
7 | O=C(Nc1ccc(Oc2ncnc3[nH]ncc23)cc1)Nc1cc(C(F)(F)F)ccc1Cl [Compound 1i, 1-(4-((1H-Pyrazolo[3,4-d]pyrimidin-4-yl)oxy)phenyl)-3-(2-chloro-5-(trifluoromethyl)phenyl)urea] | 52% | 83% | 5.95 | 4.22 | 4.20 | 4.57 | 239.2 to 240.3 °C |  | > 80 µM | 12 fold | 
8 | O=C(Nc1ccc(Oc2ncnc3[nH]ncc23)cc1)Nc1cccc(Cl)c1 [Compound 1g, 1-(4-((1H-Pyrazolo[3,4-d]pyrimidin-4-yl)oxy)phenyl)-3-(3-chlorophenyl)urea] |  | 54% | < 4.10 | 4.15 | < 4.10 | < 4.10 | 234.8 to 236 °C |  | > 80 µM |  | 
9 | CNC(=O)c1cc(Oc2ccc(NC(=O)Nc3ccc(Cl)c(C(F)(F)F)c3)cc2)ccn1 [Sorafenib, reference compound] |  |  | 4.86 | 4.86 | 5.09 | 5.17 |  |  | 14.7 µM |  | 

Continued by rising pIC50 (PC-3), values first:

Row | inhibition at 0.1 µM (BRAF^V600E) | inhibition at 1 µM (BRAF^V600E) | pIC50 (PC-3) | pIC50 (A549) | pIC50 (HT-29) | pIC50 (A375) | melting point | pIC50 (BRAF^V600E) | Structure (SMILES) | IC50 at 48 h [1] | fold improvement in activity compared to Sorafenib, PC-3 (PC-3) | fold improvement compared to Sorafenib, A549 (A549; A549, IC50 ratio to Sorafenib)
10 | 37% | 67% | 4.34 | 4.22 | 4.30 | 4.52 | 249.2 to 250.6 °C |  | O=C(Nc1ccc(Oc2ncnc3[nH]ncc23)cc1)Nc1cc(F)cc(C(F)(F)F)c1 [Compound 1j, 1-(4-((1H-Pyrazolo[3,4-d]pyrimidin-4-yl)oxy)phenyl)-3-(3-fluoro-5-(trifluoromethyl)phenyl)urea] | > 80 µM |  | 
11 | 30% | 87% | 4.39 | 4.49 | 4.56 | 5.27 |  |  | O=C(Nc1ccc(Oc2ncnc3[nH]ncc23)cc1)Nc1cc(C(F)(F)F)ccc1F [Compound 1n, 1-(4-((1H-Pyrazolo[3,4-d]pyrimidin-4-yl)oxy)phenyl)-3-(2-fluoro-5-(trifluoromethyl)phenyl)urea] | 23.1 µM |  | 
12 |  | 48% | 4.51 | 4.23 | 4.40 | 4.21 | 235.2 to 237.4 °C |  | N#Cc1cccc(NC(=O)Nc2ccc(Oc3ncnc4[nH]ncc34)cc2)c1 [Compound 1p, 1-(4-((1H-Pyrazolo[3,4-d]pyrimidin-4-yl)oxy)phenyl)-3-(3-cyanophenyl)urea] | > 80 µM |  | 
13 | 3% | 62% | 4.63 | < 4.10 | 4.50 | 4.19 | 229.2 to 231.4 °C |  | O=C(Nc1ccc(Oc2ncnc3[nH]ncc23)cc1)Nc1cccc([N+](=O)[O-])c1 [Compound 1m, 1-(4-((1H-Pyrazolo[3,4-d]pyrimidin-4-yl)oxy)phenyl)-3-(3-nitrophenyl)urea] | > 80 µM |  | 
14 |  | 32% | 4.65 | < 4.10 | < 4.10 | < 4.10 | 217.3 to 220.1 °C |  | COC(=O)c1cccc(NC(=O)Nc2ccc(Oc3ncnc4[nH]ncc34)cc2)c1 [Compound 1q, Methyl-3-(3-(4-((1H-pyrazolo[3,4-d]pyrimidin-4-yl)oxy)phenyl)ureido)benzoate] | > 80 µM |  | 
15 |  | 51% | 4.74 | < 4.10 | < 4.10 | 4.10 |  |  | O=C(Nc1ccc(Cl)cc1)Nc1ccc(Oc2ncnc3[nH]ncc23)cc1 [Compound 1d, 1-(4-((1H-Pyrazolo[3,4-d]pyrimidin-4-yl)oxy)phenyl)-3-(4-chlorophenyl)urea] | > 80 µM |  | 
16 | 27% | 83% | 4.95 | 4.79 | 4.82 | 4.53 | 245 to 247.2 °C |  | O=C(Nc1ccc(Oc2ncnc3[nH]ncc23)cc1)Nc1ccc(Cl)c(Cl)c1 [Compound 1c, 1-(4-((1H-Pyrazolo[3,4-d]pyrimidin-4-yl)oxy)phenyl)-3-(3,4-dichlorophenyl)urea] | 35.5 µM |  | 
17 | 10% | 71% | 5.26 | < 4.10 | < 4.10 | 4.18 | 234.5 to 237 °C |  | O=C(Nc1ccc(Oc2ncnc3[nH]ncc23)cc1)Nc1cccc(Br)c1 [Compound 1s, 1-(4-((1H-Pyrazolo[3,4-d]pyrimidin-4-yl)oxy)phenyl)-3-(3-bromophenyl)urea] | > 80 µM |  | 
